# Measurements reported in patent US9233971B2, “Lipomacrocycles and uses thereof” (priority 2010, dated 2016).
# What was measured:
# APOB mRNA in liver = assay: In vivo gene knockdown, lipid particle siRNA formulation (Example 4), APOB siRNA; set-up: species or system CD1 mice; conditions: for Targeted mRNA remain in liver: lipid particles, APOB siRNA, CD1 mice, liver harvested three days later, real-time RT-PCR, GAPDH reference
# Procedure: (§1) Lipid Particle formulations were made by first mixed siRNA in an aqueous solution with DOTMA in organic solvent to produce a water-insoluble precipitate. After isolating and drying the precipitate, the precipitate was dissolved in chloroform and further mixed with other lipids as following: Each lipid particle formulation was consisting of 1 part DOTMA+siRNA complex/5 parts any lipomacrocycle compound (Table 1)/1.5 parts N 6-tetrakis (3-aminopropyl)-1,3-propanediamine cholesteryl carbamate/2.2 parts 1,2-dilinoleoyl-sn-glycero-3-phosphoethanolamine/10.08 parts cholesterol PEG-660/4.32 parts cholesterol PEG-660/0.6 parts cholesterol (weight/weight). All the components were dissolved in chloroform and mixed together. Then, the mixtures were dried overnight in Speedvac. The dried formulations were hydrated by adding in certain amount of 5% dextrose water before dosing to animals intravenously.
# (§2) All procedures used in animal studies conducted were approved by the Institutional Animal Care and Use Committee (IACUC) and were consistent with local, state and federal regulations as applicable. Mice, rats, and rabbits received siRNA formulations intravenously at dose volume of 0.2 ml, 1 ml, or 10 ml, respectively. Animals were sacrificed 2 to 7 days later. Tissues were harvested and mRNA was isolated with Turbocapture kit (Qiagen) for analyzing change of gene expression with real-time RT-PCR method (SensiMix SYBR One-Step Kit, Bioline). Serum was harvested for analyzing blood chemistry.
# (§3) CD1 mice were dosed with lipid particle (Table 1) or liposome (Table 2) siRNA formulation intravenousely and the different tissues were harvested three days later. The gene expression was analyzed with real-time RT-PCR method (for liver, GAPDH as reference gene; for lung and bone marrow, GAPDG and β-actin as reference genes).
# SSB mRNA in liver [1] = assay: In vivo gene knockdown, liposomal siRNA formulation (Example 3), SSB siRNA; set-up: species or system CD1 mice; conditions: for Targeted mRNA remain in liver: liposomal formulation, SSB siRNA, dose 3.2 mg/kg intravenously, CD1 mice, liver harvested three days later, real-time RT-PCR, GAPDH reference
# Procedure: Each liposome formulation was made by mixing lipids of each lipomacrocycle compound (Table 1) combined with DSPC, DMG-PEG 2K, and cholesterol at the weight ratio of 3.85:0.42:0.21:0.79 in ethanol and siRNA in water. Then 5% dextrose water was added in each formulation before dosing to mice.
# as §2, §3
# SSB mRNA in liver [2] = assay: In vivo gene knockdown, lipid particle siRNA formulation (Example 4), SSB siRNA; conditions: lipid particles, CD1 mice, liver harvested three days later, real-time RT-PCR, GAPDH reference
# Procedure: as §1, §2, §3
SMILES,Targeted mRNA remain in liver (SSB mRNA in liver [1]),further results
CCCCCCCCCCCCOCC(O)CN1CCN(CC(O)COCCCCCCCCCCCC)CCN(CC(O)COCCCCCCCCCCCC)CCN(CC(O)COCCCCCCCCCCCC)CCN(CC(O)COCCCCCCCCCCCC)CCN(CC(O)COCCCCCCCCCCCC)CC1 (centres unmarked) [Compound M10C8],,"Targeted mRNA remain in liver (APOB mRNA in liver; dose 1 mg/kg intravenously): 0.06; performance of the lipid molecules, best compounds (APOB mRNA in liver; ranking based on the results of Table 1 (lipid particles, APOB and SSB siRNA)): best"
CCCCCCCCCCOCC(O)CN(CCCN(C)CCCN(CC(O)COCCCCCCCCCC)CC(O)COCCCCCCCCCC)CC(O)COCCCCCCCCCC (centres unmarked) [Compound B1C2],0.68,
CCCCC(CC)COCC(O)CN(CCCN(CCCCN(CCCN(CC(O)COCC(CC)CCCC)CC(O)COCC(CC)CCCC)CCCN(CC(O)COCC(CC)CCCC)CC(O)COCC(CC)CCCC)CCCN(CC(O)COCC(CC)CCCC)CC(O)COCC(CC)CCCC)CC(O)COCC(CC)CCCC (centres unmarked) [Compound T4C3],0.12,
CCCCC(CC)COCC(O)CN1CCN(CC(O)COCC(CC)CCCC)CCN(CC(O)COCC(CC)CCCC)CCN(CC(O)COCC(CC)CCCC)CCN(CC(O)COCC(CC)CCCC)CCN(CC(O)COCC(CC)CCCC)CC1 (centres unmarked) [Compound M10C3],,Targeted mRNA remain in liver (SSB mRNA in liver [2]; dose 3 mg/kg intravenously): 0.43
CCCCC(CC)COCC(O)CN(CCCN(CC(O)COCC(CC)CCCC)CC(O)COCC(CC)CCCC)CCCN(CC(O)COCC(CC)CCCC)CC(O)COCC(CC)CCCC (centres unmarked) [Compound D1C3],0.18,
CCCCCCCCCCOCC(O)CN(CCCN(CCCN(CC(O)COCCCCCCCCCC)CC(O)COCCCCCCCCCC)CCCN(CC(O)COCCCCCCCCCC)CC(O)COCCCCCCCCCC)CC(O)COCCCCCCCCCC (centres unmarked) [TaC2],0.13,
CC(C)CCC[C@@H](C)[C@H]1CC[C@H]2[C@@H]3CC=C4C[C@@H](OC(=O)N5CCN(Cc6ccccc6)CCNCCN(Cc6ccccc6)CC5)CC[C@]4(C)[C@H]3CC[C@]12C [Compound M6ch1],,Targeted mRNA remain in liver (APOB mRNA in liver; dose 3 mg/kg intravenously): 0.86
CCCCCCCCCCC(O)CN(CCN(CCN(CC(O)CCCCCCCCCC)CC(O)CCCCCCCCCC)CCN(CC(O)CCCCCCCCCC)CC(O)CCCCCCCCCC)CC(O)CCCCCCCCCC (centres unmarked) [Compound T5C4],0.41,
CCCCCCCCCCCCCCC(O)CN(CCN(C)CCN(CC(O)CCCCCCCCCCCCCC)CC(O)CCCCCCCCCCCCCC)CC(O)CCCCCCCCCCCCCC (centres unmarked) [MdC7],0.25,
CCCCCCCCCCCCCCC(O)CN(CCCN(CCCN(CC(O)CCCCCCCCCCCCCC)CC(O)CCCCCCCCCCCCCC)CC(O)CCCCCCCCCCCCCC)CCCN(CC(O)CCCCCCCCCCCCCC)CC(O)CCCCCCCCCCCCCC (centres unmarked) [NsC7],0.1,
CCCCCCCCCCCCCCOCC(O)CN(CCCN(CCCN(CCCN(CC(O)COCCCCCCCCCCCCCC)CC(O)COCCCCCCCCCCCCCC)CCCN(CC(O)COCCCCCCCCCCCCCC)CC(O)COCCCCCCCCCCCCCC)CCCN(CC(O)COCCCCCCCCCCCCCC)CC(O)COCCCCCCCCCCCCCC)CC(O)COCCCCCCCCCCCCCC (centres unmarked) [Compound T3C1],0.13,Targeted mRNA remain in liver (SSB mRNA in liver [2]; dose 3.2 mg/kg intravenously): 0.18
CCCCCCCCCCCCCCOCC(O)CN(CCN(CCN(CC(O)COCCCCCCCCCCCCCC)CC(O)COCCCCCCCCCCCCCC)CCN(CC(O)COCCCCCCCCCCCCCC)CC(O)COCCCCCCCCCCCCCC)CC(O)COCCCCCCCCCCCCCC (centres unmarked) [Compound T5C1],0.13,
CCCCC(CC)COCC(O)CN(CCN(CCN(CC(O)COCC(CC)CCCC)CC(O)COCC(CC)CCCC)CCN(CC(O)COCC(CC)CCCC)CC(O)COCC(CC)CCCC)CC(O)COCC(CC)CCCC (centres unmarked) [Compound T5C3],0.43,
CC(C)CCC[C@@H](C)[C@H]1CC[C@H]2[C@@H]3CC=C4C[C@@H](OC(=O)N5CCNCCNCCNCCNCCNCC5)CC[C@]4(C)[C@H]3CC[C@]12C [Compound M10ch1],,Targeted mRNA remain in liver (APOB mRNA in liver; dose 3 mg/kg intravenously): 0.39
CCCCCCCCCCCCCCC(O)CN(CCCN(CC(O)CCCCCCCCCCCCCC)CC(O)CCCCCCCCCCCCCC)CCCN(CC(O)CCCCCCCCCCCCCC)CC(O)CCCCCCCCCCCCCC (centres unmarked) [Compound D1C7],0.52,
CCCCCCCCCCC(O)CN(CCCN(CCCN(CC(O)CCCCCCCCCC)CC(O)CCCCCCCCCC)CCCN(CC(O)CCCCCCCCCC)CC(O)CCCCCCCCCC)CC(O)CCCCCCCCCC (centres unmarked) [TaC4],0.12,
CCCCCCCCCCCCC(O)CN1CCN(Cc2ccccc2)CCN(CC(O)CCCCCCCCCCCC)CCN(Cc2ccccc2)CC1 (centres unmarked) [Compound M6C6],0.8,

SMILES,Targeted mRNA remain in liver (SSB mRNA in liver [1]),further results
CCCCCCCCCCC(O)CN1CCN(CC(O)CCCCCCCCCC)CCN(CC(O)CCCCCCCCCC)CCN(CC(O)CCCCCCCCCC)CCN(CC(O)CCCCCCCCCC)CCN(CC(O)CCCCCCCCCC)CC1 (centres unmarked) [Compound M10C4],,Targeted mRNA remain in liver (SSB mRNA in liver [2]; dose 3 mg/kg intravenously): 0.63
CCCCCCCCCCCCCCOCC(O)CN(CCCN(CCCN(CC(O)COCCCCCCCCCCCCCC)CC(O)COCCCCCCCCCCCCCC)CCCN(CC(O)COCCCCCCCCCCCCCC)CC(O)COCCCCCCCCCCCCCC)CC(O)COCCCCCCCCCCCCCC (centres unmarked) [TaC1],0.1,Targeted mRNA remain in liver (APOB mRNA in liver; dose 0.8 mg/kg intravenously): 0.81
CCCCCCCCCCCCCCOCC(O)CN(CCCN(C)CCCN(CC(O)COCCCCCCCCCCCCCC)CC(O)COCCCCCCCCCCCCCC)CC(O)COCCCCCCCCCCCCCC (centres unmarked) [Compound B1C1],0.13,Targeted mRNA remain in liver (APOB mRNA in liver; dose 0.8 mg/kg intravenously): 0.82
CCCCCCCCCCCCCCC(O)CN1CCN(Cc2ccccc2)CCN(CC(O)CCCCCCCCCCCCCC)CCN(CC(O)CCCCCCCCCCCCCC)CC1 (centres unmarked) [Compound M1C7],0.47,Targeted mRNA remain in liver (SSB mRNA in liver [2]; dose 3.2 mg/kg intravenously): 0.35
CCCCCCCCCCCCCCCCC(O)CN1CCN(Cc2ccccc2)CCN(CC(O)CCCCCCCCCCCCCCCC)CCN(CC(O)CCCCCCCCCCCCCCCC)CC1 (centres unmarked) [Compound M1C5],0.6,
CCCCCCCCCCCCCCC(O)CN(CCCN(CCCN(CC(O)CCCCCCCCCCCCCC)CC(O)CCCCCCCCCCCCCC)CCCN(CC(O)CCCCCCCCCCCCCC)CC(O)CCCCCCCCCCCCCC)CC(O)CCCCCCCCCCCCCC (centres unmarked) [TaC7],0.33,
CCCCCCCCCCCCCCOCC(O)CN1CCCN(CC(O)COCCCCCCCCCCCCCC)CCCN(CC(O)COCCCCCCCCCCCCCC)CCC1 (centres unmarked) [Compound M9C1],0.3,Targeted mRNA remain in liver (SSB mRNA in liver [2]; dose 3.2 mg/kg intravenously): 0.2
CCCCCCCCCCCCC(O)CN(CCN(C)CCN(CC(O)CCCCCCCCCCCC)CC(O)CCCCCCCCCCCC)CC(O)CCCCCCCCCCCC (centres unmarked) [MdC6],1.1,
CCCCCCCCCCOCC(O)CN(CCCN1CCN(CCCN(CC(O)COCCCCCCCCCC)CC(O)COCCCCCCCCCC)CC1)CC(O)COCCCCCCCCCC (centres unmarked) [Compound B2C2],0.36,
CCCCC(CC)COCC(O)CN1CCN(Cc2ccccc2)CCN(CC(O)COCC(CC)CCCC)CCN(CC(O)COCC(CC)CCCC)CC1 (centres unmarked) [Compound M1C3],0.64,
CCCCCCCCCCC(O)CN(CCCN(CCCN(CC(O)CCCCCCCCCC)CC(O)CCCCCCCCCC)CC(O)CCCCCCCCCC)CCCN(CC(O)CCCCCCCCCC)CC(O)CCCCCCCCCC (centres unmarked) [NsC4],0.13,
CC(C)CCC[C@@H](C)[C@H]1CC[C@H]2[C@@H]3CC=C4C[C@@H](OC(=O)NCCN(CCN)CCN)CC[C@]4(C)[C@H]3CC[C@]12C [Compound T5ch1],,Targeted mRNA remain in liver (APOB mRNA in liver; dose 3 mg/kg intravenously): 0.39
CCCCCCCCCCCCCCCCC(O)CN(CCN(C)CCN(CC(O)CCCCCCCCCCCCCCCC)CC(O)CCCCCCCCCCCCCCCC)CC(O)CCCCCCCCCCCCCCCC (centres unmarked) [MdC5],0.45,
CCCCCCCCCCCCC(O)CN(CCCN(CCCN(CC(O)CCCCCCCCCCCC)CC(O)CCCCCCCCCCCC)CCCN(CC(O)CCCCCCCCCCCC)CC(O)CCCCCCCCCCCC)CC(O)CCCCCCCCCCCC (centres unmarked) [TaC6],0.17,
CCCCCCCCCCCCC(O)CN(CCCN1CCN(CCCN(CC(O)CCCCCCCCCCCC)CC(O)CCCCCCCCCCCC)CC1)CC(O)CCCCCCCCCCCC (centres unmarked) [Compound B2C6],0.08,"performance of the lipid molecules, best performing compounds (SSB mRNA in liver [1]; ranking based on the results of Table 2 (liposomal formulation, SSB and APOB siRNA)): best performing"
CCCCCCCCCCOCC(O)CN(CCCN(CCCN(CC(O)COCCCCCCCCCC)CC(O)COCCCCCCCCCC)CC(O)COCCCCCCCCCC)CCCN(CC(O)COCCCCCCCCCC)CC(O)COCCCCCCCCCC (centres unmarked) [NsC2],0.1,
CCCCC(CC)COCC(O)CN(CCN(C)CCN(CC(O)COCC(CC)CCCC)CC(O)COCC(CC)CCCC)CC(O)COCC(CC)CCCC (centres unmarked) [MdC3],0.24,
